Measured values taken from patent publication US20050071891A1, “Repressible sterility of animals” (priority 1999, published 2005).

Tests used:
HoxCG1 gene = assay: Arrested development of oyster embryos transfected with hairpin dsRNA plasmid; assay type: in vivo
Protocol: In vivo expression of dsRNA was achieved by transfecting oyster larvae with the pBiT(dHSP)-RFP-oHoxDS/BH plasmid (FIG. 21; SEQ ID NO:20), which contains the heat inducible promoter (PHSP70) from D. melanogaster driving the expression of a hairpin RNA molecule specific to the HoxCG1 gene. The construct was prepared as follows. SEQ ID NO:23 (AGAL ref #: NM99/09101) was used as a template to generate a PCR fragment using the following primers: […]
Oyster sperm were transfected with the DNA using electroporation, and oocytes were fertilized and larvae allowed to develop for 96 hours. Embryos were heat shocked for one hour at 3 hours post fertilization to induce transcription of the dsRNAs.

HoxCG1 = assay: Reversible arrested oyster larval development with tetracycline-responsive plasmid; assay type: in vivo; conditions: 72 hours
From the text: The second Sterile Feral Construct tested for oysters, expresses the tTA under the Drosophila HSP. The tTA then drives expression of red fluorescent protein and double stranded oyster Hox via the TRE. Three separate fragments were ligated together to form this construct. The first fragment was obtained by digestion of pBiT(dHSP)-EGFP, (Seq ID NO:19), with HindIII and NheI followed by gel purification of the appropriate fragment containing the Drosophila HSP promoter. The second fragment was obtained by digesting pBiT(dHSP)-EGFP with NotI and MluI followed by gel purification of the appropriate fragment containing the TRE. The third fragment was obtained by digesting pHSP-oHoxDS/BH with MluI and. SpeI and gel purifying the appropriate fragment containing the 510 bp fragment of the zBMP2 cDNA from sequence 301-810 in the published cDNA sequence (Lee et al., 1998). The fourth fragment was obtained by firstly subcloning into pGEM3zf a KpnI/XbaI fragment containing the coding region of red fluorescent protein (RFP) that was excised from pDsRed1-N1 (Clontech, PT3405-5) vector. The resulting plasmid was then subjected to digestion with HindIII and PspOMI and the appropriate fragment containing the coding region of RFP was then gel purified from this reaction. […]

Pacific oyster larvae = assay: Electroporation of oyster sperm, GUS as reporter gene; assay type: in vivo, Crassostrea gigas
Protocol: Mature oysters (Crassostrea gigas) were obtained from local hatcheries in Tasmania and New South Wales, and held in artificial seawater at 10° C. until required. Eggs were collected from 2-3 females by stripping the gonads and were pooled, rinsed on a 20 μm mesh, and left to condition in artificial sea water for 2 h. Sperm were stripped from male gonads, diluted to approximately 10,000 gametes/μl, and used immediately for electroporation-mediated nucleic acid delivery. Plasmid DNA (50 μg/ml) or double-stranded RNA (dsRNA; 1 μg/ml) was delivered into 1×10^6 sperm using a BioRad Gene Pulser II electroporator in 0.2 cm gap electroporation cuvettes. Sperm were subjected to a single electroporation pulse (50 V, 100% modulation, 10 kHz, 12.5 msec) and immediately mixed with 5000 oocytes. Fertilized embryos and developing larvae were reared at 20° C. in artificial seawater containing 0.1 μg/ml chloramphenicol. Surviving larvae were counted after 24 h development. For experiments in which the Drosophila melanogaster heat shock promoter was used to drive expression of the delivered genes, a 1 h heat shock at 37° C. was provided either at 2 h or 18 h post fertilization, and development was then permitted to proceed at 20° C.
Transfection efficiencies were also assessed in a second set of experiments that examined delivery of pHSP-GUS construct (SEQ ID NO:21). The pHSP-GUS construct was made in a two step fashion. First, the D. melanogaster heat shock promoter and terminator were isolated from the pCaSpeR-hs plasmid (Thummel and Pirrotta, 1992, Drosophila Information Service 71: 150) by PCR using the two primers: […]
GUS activity in these experiments was measured using a fluorometric assay as previously described (Jefferson, R A 1987).

goosecoid = assay: Cotransfection of blocker plasmids with pSFM 6 (goosecoid fused to RFP) in P19-pSFM 7 cells; assay type: cell-based, mouse; conditions: transiently cotransfected with pSFM 6
Protocol: (§1) Fluorescent and transmitted light images were acquired using a CCD camera with a microscope. […] The luminescence assays were conducted by using a dark 96 well plate was done by Victor2 from Wallac or by Topcount NXT from Can berra Packard.
The first stage for testing blocker constructs is to set up an appropriate cell system to detect expression of reporter constructs. Initially, either pdsRED-N1 (CMV promoter RFP), pSFM 6 (CMV promoter goosecoid cDNA fused to RFP) or pSFM 24 (TRE EGFP) were transfected into P19-pSFM 7 cells to test the expression patterns of the EGFP, RFP and goosecoid-fused to RFP proteins (FIG. 37). […] In these cases, RFP expression fused to goosecid in the nucleus is expected to be inhibited in the presence of an appropriate blocker.
In order to assess various antisense and dsRNA blockers, pSFM 6 (CMV promoter goosecoid fused to RFP) was transiently cotransfected into the P19-pSFM 7 (Goosecoid promoter TET/OFF) cells along with either pSFM 5 (TRE promoter dsRNA goosecoid), pSFM 8, (CMV promoter antisense goosecoid), pSFM 9 (TRE promoter antisense goosecoid) or pSFM 24 (TRE promoter EGFP). […] There are several potential reasons for the absence of RNA blocker effects. First, antisense and dsRNA blockers may not be expressed at levels high enough to effectively interfere with the target mRNA molecules. Secondly, there may be cellular mechanisms in mammals that recognize and interfere with such constructs. Thirdly, the RNA inhibitory molecules may not be able to access and block the RNA target.

P19 cells = assay: Luciferase activity of reporter constructs transiently transfected in P19 cells; assay type: cell-based, mouse; conditions: for luciferase activity compared to the promoterless construct (pSFM 21) / luciferase activity, Average / luciferase activity, Fold: P19 cells; for luciferase activity compared to the promoterless construct (pSFM 21): transient; for luciferase activity, Average: transient transfection; for luciferase activity, Fold: relative to pSFM 21
Protocol: For transient transfection assays, P19 cells were cultured on gelatinized dishes in DMEM supplemented with 10% fetal bovine serum. Cells (0.3 million per well in 6-well cluster plates) were transfected with 5 μg reporter plasmid using transfection reagent ‘Geneporter’ from Gene Therapy Systems according manufacturer's recommendation.
as §1
P19 cells were transiently transfected in 6 well plates with pSFM 20 (goosecoid promoter-luciferase), pSFM 21 (promoterless luciferase) and pSFM 23 (CMV promoter-luciferase) using Gene Porter. Cells were harvested at various times post-tranfection and assayed for luciferase activity using a Promega kit (Cat. # E1501) in a Top Count NXT luminometer. […]

P19-pSFM 7 cells [1] = assay: Luciferase activity of reporter plasmids transiently transfected in P19-pSFM 7 cells; assay type: cell-based, mouse; conditions: for luciferase activity, Fold: relative to pSFM 21; for luciferase activity, Average: transient transfection
From the text: Reporter plasmids pSFM 20 (goosecoid promoter luciferase+), pSFM 21 (promoterless luciferase+), pSFM 23 (CMV promoter luciferase+) and pSFM 25 (TRE luciferase+) were transiently transfected into either P19 or P19-pSFM 7 (Goosecoid TET/OFF) cells to test the effectiveness of the TET-OFF genetic switch driven by goosecoid promoter.

P19-pSFM 7 cells [2] = assay: Luciferase activity of pSFM 25 in P19 clones stably integrated with pSFM 7; assay type: cell-based, mouse
Protocol: Stably integrated P19 clones were obtained by using BioRad Gene Pulser II electroporation system. 30 μg DNA electroporated into 10 million cells under following conditions 960 μF and 0.16 kV in a 0.4 cm cuvette (0.4 kV/cm). The next day normal media were replaced with appropriate selection media (300 μg/ml G418).
Selection of a P19 cell line stably integrated with a goosecoid-dependent TET-OFF transactivator P19 cells were electroporated with pSFM 7 (Goosecoid promoter-TET/OFF) linearised with ApaLI and selected for stable integration.
Table 20 showes the luciferase activities of pSFM 25 (TRE luciferase+) shown in counts per second (cps) of transiently transfected in P19-pSFM 7 cells.
Addition of doxycycline at 1 μg/ml reduced luciferase activity from pSFM 25 in this clone by 90 fold. This clone, containing stably integrated pSFM 7 was therefore designated P19-pSFM 7 and used for further testing.

Substance	intensity or number of cells expressing RFP in the nucleus (goosecoid)	luciferase activity (P19 cells; 24 hours post-transfection) [cps]	luciferase activity (P19 cells; 48 hours post-transfection) [cps]	luciferase activity (P19 cells; 72 hours post-transfection) [cps]	luciferase activity, Average (P19 cells)	luciferase activity, Fold (P19 cells)	luciferase activity, Fold (P19-pSFM 7 cells [1])	luciferase activity, Average (P19-pSFM 7 cells [1])	also measured
pHSP-GUS: expresses GUS under the control of the D. melanogaster heat shock promoter (SEQ ID NO:21)	–	–	–	–	–	–	–	–	% arrested development (HoxCG1 gene; no heat shock): 6 ± 2%; % arrested development (HoxCG1 gene; with heat shock (one hour at 3 hours post fertilization)): 8 ± 3%; % arrested development (HoxCG1; No doxycycline): 5 ± 3%; % arrested development (HoxCG1; With doxycycline (5 μg/μl)): 4 ± 3%; GUS activity (Pacific oyster larvae; electroporation, heat shock): 83.2 ± 5.4 fluorescence units/μg protein; GUS activity relative to controls (Pacific oyster larvae; electroporation, heat shock): 19.8; GUS activity (Pacific oyster larvae; electroporation, no heat shock): 10.5 ± 0.5 fluorescence units/μg protein; GUS activity relative to controls (Pacific oyster larvae; electroporation, no heat shock): 2.5; GUS activity (Pacific oyster larvae; no electroporation, heat shock): 4.5 ± 0.5 fluorescence units/μg protein; GUS activity relative to controls (Pacific oyster larvae; no electroporation, heat shock): 1.1
pSFM 5: Tet-responsive expression vector pTRE-goosecoid double strand RNA	significant difference could not be detected	–	–	–	–	–	–	–	–
pSFM 8: pCMV promoter expressing goosecoid antisense RNA	significant difference could not be detected	–	–	–	–	–	–	–	–
pSFM 9: Tet-responsive expression vector pTRE-goosecoid antisense RNA	significant difference could not be detected	–	–	–	–	–	–	–	–
pSFM 20: goosecoid promoter expressing luciferase+ protein	–	1263	3707	1692	610	5	6	365	luciferase activity compared to the promoterless construct (pSFM 21) (P19 cells): 6 fold
pSFM 21: promoterless luciferase+	–	254	604	252	121	1	1	60	–
pSFM 23: pCMV promoter expressing luciferase+	–	78778	145403	49936	44491	367	267	16031	luciferase activity compared to the promoterless construct (pSFM 21) (P19 cells): 200-300 fold
pSFM 25: Tet-responsive expression vector pTRE-luciferase+	–	–	–	–	183	1.5	6	368	luciferase activity (P19-pSFM 7 cells [2]; clone 9, with doxycycline): 54858 cps; luciferase activity (P19-pSFM 7 cells [2]; clone 9, without doxycycline): 582529 cps; luciferase activity (P19-pSFM 7 cells [2]; clone 12, with doxycycline): 4396 cps; luciferase activity (P19-pSFM 7 cells [2]; clone 12, without doxycycline): 417268 cps; luciferase activity (P19-pSFM 7 cells [2]; clone 29, with doxycycline): 48260 cps; luciferase activity (P19-pSFM 7 cells [2]; clone 29, without doxycycline): 616604 cps; luciferase activity (P19-pSFM 7 cells [2]; clone 32, with doxycycline): 19548 cps; luciferase activity (P19-pSFM 7 cells [2]; clone 32, without doxycycline): 272888 cps; luciferase activity (P19-pSFM 7 cells [2]; clone 46, with doxycycline): 8013 cps; luciferase activity (P19-pSFM 7 cells [2]; clone 46, without doxycycline): 703470 cps
